Measurements published in publication PMC9607427, “Novel 7-Chloro-(4-thioalkylquinoline) Derivatives: Synthesis and Antiproliferative Activity through Inducing Apoptosis and DNA/RNA Damage” (Pharmaceuticals, 2022).

Experiments:
CCRF-CEM lymphoblasts [1] = test: BrDU incorporation analysis (DNA synthesis); type: cell-based, human; conditions: 24 h, 1 × IC50 (first value of cell)
[2] = system: A549 (lung adenocarcinoma); test: Cytotoxic MTS assay, A549; type: cell-based, human
Method in brief: (§1)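 Growth inhibition over 72 h at 37 °C was quantified with MTS reagent (OD 490 nm), using four-fold compound dilutions added at seeding; the 50% inhibitory concentration was reported.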

[3] = system: MRC-5 (noncancerous human lung fibroblasts); test: Cytotoxic MTS assay, MRC-5; type: cell-based
Method in brief: as §1

[4] = system: HCT116 (colorectal carcinoma); test: Cytotoxic MTS assay, HCT116; type: cell-based, human
Method in brief: as §1

[5] = system: CCRF-CEM (childhood T cell acute lymphoblastic leukemia); test: Cytotoxic MTS assay, CCRF-CEM; type: cell-based, human
Method in brief: as §1

[6] = system: BJ (noncancerous human fibroblasts from foreskin); test: Cytotoxic MTS assay, BJ; type: cell-based
Method in brief: as §1

CCRF-CEM lymphoblasts [7] = test: BrDU incorporation analysis (DNA synthesis); type: cell-based, human; conditions: 24 h, 5 × IC50 (second value of cell)
Experimental: The effect of compounds on cell cycle distribution was determined to gain insights into the mechanism of its antiproliferative activity. […] For example, as compared with control, the percentage of cells in G2/M phases was increased by treatment with 5 × IC50 μM of compounds for 24 h (Table 4). […] As shown in (Table 4), there was a marked increase in the sub-G1 from 2.91 in untreated cells. 5-Bromo-2-deoxyuridine (BrDU) is incorporated into newly synthesized DNA, and 5-bromouridine (BrU) pulse labeling is therefore commonly used as a proliferation marker. Low BrDU and BrU incorporation into the DNA or RNA, respectively, of treated cells with all compounds at 5 × IC50 reflected inhibition of DNA and RNA synthesis, indicating irreversible apoptotic changes. The percentage of […] cells incorporating 5-bromouridine is proportional to the transcriptional activity of CCRF-CEM cells. Cells were cultivated and processed as described in the previous method. Before harvesting, BrDU 10 µM was added to the cells for pulse-labeling for 30 min. Then, cells were washed by PBS and fixed with −20 °C cold 70% ethanol and stored in a freezer overnight. Before analysis, the samples were incubated on ice for 30 min, washed once with PBS, and re-suspended in 2 M HCl for 30 min at rt to denature their DNA. Following neutralization with a 0.1 M Na2B4O7 (borax) solution, the cells were washed with PBS containing 0.5% Tween-20 and 1% BSA. Next, staining with primary anti-BrDU antibody (Exbio) was performed for 30 min at rt in the dark. Cells were then washed with PBS and stained with secondary anti-mouse-FITC antibody (Sigma) at rt in the dark. After another wash with PBS and incubation with propidium iodide (0.1 mg × mL^−1) and RNase A (0.5 mg × mL^−1) for 1 h at rt in the dark, cells were analyzed by flow cytometry using a 488 nm single beam laser (FACSCalibur, Becton Dickinson, Franklin Lakes, NJ, USA).

[8] = system: K562 (chronic myeloid leukemia); test: Cytotoxic MTS assay, K562; type: cell-based, human
Method in brief: as §1

In the case of Cc1ccc([N+](=O)[O-])c(C(=O)OCCS(=O)(=O)c2cc[n+]([O-])c3cc(Cl)ccc23)c1 [Compound 70, 2-[(N-Oxide 7-chloroquinolin-4-yl)sulfonyl]ethyl-5-methyl-2-nitrobenzoate], the “DNA Synthesis (% positive of cells)” value (CCRF-CEM lymphoblasts [1]) is reported as 35.58%, the IC50 [2] is reported as 28.2 µM and the IC50 [3] is reported as 22.9 µM. It also gave an IC50 [4] of 11.5 µM, an IC50 [5] of 1.16 µM and an IC50 [6] of 25.7 µM. For the same molecule, the “DNA Synthesis (% positive of cells)” value (CCRF-CEM lymphoblasts [7]) was 4.88% and the IC50 [8] was 6.1 µM.
For O=C(OCCS(=O)(=O)c1cc[n+]([O-])c2cc(Cl)ccc12)c1ccc(C(F)(F)F)cc1 [Compound 72, 2-[(N-Oxide 7-chloroquinolin-4-yl)sulfonyl]ethyl-4-(trifluoromethyl)benzoate], the “DNA Synthesis (% positive of cells)” value (CCRF-CEM lymphoblasts [1]) was 27.07%, the IC50 [2] was 28.5 µM and the IC50 [3] was 24.4 µM. For the same molecule, the IC50 [4] was 17.3 µM, the IC50 [5] was 2.14 µM and the IC50 [6] was 28.7 µM. The “DNA Synthesis (% positive of cells)” value (CCRF-CEM lymphoblasts [7]) was 4.35% and the IC50 [8] was 3.02 µM.
COc1ccc(C(=O)OCCS(=O)(=O)c2cc[n+]([O-])c3cc(Cl)ccc23)cc1[N+](=O)[O-] [Compound 69, 2-[(N-Oxide 7-chloroquinolin-4-yl)sulfonyl]ethyl-4-methoxy-3-nitrobenzoate] was tested, and the “DNA Synthesis (% positive of cells)” value (CCRF-CEM lymphoblasts [1]) was 34.45%, the IC50 [2] was 28.3 µM and the IC50 [3] was 8.41 µM. For the same molecule, the IC50 [4] was 13.1 µM, the IC50 [5] was 1.38 µM and the IC50 [6] was 27.2 µM. For the same molecule, the “DNA Synthesis (% positive of cells)” value (CCRF-CEM lymphoblasts [7]) was 4.22% and the IC50 [8] was 6.49 µM.
COc1cc(OC)c(C(=O)OCCS(=O)(=O)c2cc[n+]([O-])c3cc(Cl)ccc23)cc1OC [Compound 66, 2-[(N-Oxide 7-chloroquinolin-4-yl)sulfonyl]ethyl-2,4,5-trimethoxybenzoate] was tested, and the “DNA Synthesis (% positive of cells)” value (CCRF-CEM lymphoblasts [1]) was 39.87%, the IC50 [2] was 28 µM and the IC50 [3] was 5.07 µM. It also gave an IC50 [4] of 9.22 µM, an IC50 [5] of 1.11 µM and an IC50 [6] of 21.2 µM. For the same molecule, the “DNA Synthesis (% positive of cells)” value (CCRF-CEM lymphoblasts [7]) was 9.68% and the IC50 [8] was 5.3 µM.
For COc1ccccc1C(=O)OCCS(=O)(=O)c1cc[n+]([O-])c2cc(Cl)ccc12 [Compound 68, 2-[(N-Oxide 7-chloroquinolin-4-yl)sulfonyl]ethyl-2-methoxybenzoate], the “DNA Synthesis (% positive of cells)” value (CCRF-CEM lymphoblasts [1]) was 41.27%, the IC50 [2] was 27 µM and the IC50 [3] was 4.92 µM. The IC50 [4] was 5.25 µM, the IC50 [5] was 1.23 µM and the IC50 [6] was 24.6 µM. The “DNA Synthesis (% positive of cells)” value (CCRF-CEM lymphoblasts [7]) was 7.18% and the IC50 [8] was 4.72 µM.
With COc1ccc(C(=O)OCCS(=O)(=O)c2cc[n+]([O-])c3cc(Cl)ccc23)cc1 [Compound 63, 2-[(N-Oxide 7-chloroquinolin-4-yl)sulfonyl]ethyl-4-methoxybenzoate] the “DNA Synthesis (% positive of cells)” value (CCRF-CEM lymphoblasts [1]) was 41.06%, the IC50 [2] was 28.8 µM and the IC50 [3] was 4 µM. For the same molecule, the IC50 [4] was 16.2 µM, the IC50 [5] was 0.77 µM and the IC50 [6] was 23.9 µM. For the same molecule, the “DNA Synthesis (% positive of cells)” value (CCRF-CEM lymphoblasts [7]) was 13.54% and the IC50 [8] was 5.38 µM.
COc1ccc(OC)c(C(=O)OCCS(=O)(=O)c2cc[n+]([O-])c3cc(Cl)ccc23)c1 [Compound 65, 2-[(N-Oxide 7-chloroquinolin-4-yl)sulfonyl]ethyl-2,5-dimethoxybenzoate] was tested, and the “DNA Synthesis (% positive of cells)” value (CCRF-CEM lymphoblasts [1]) was 36.82%, the IC50 [2] was 28.2 µM and the IC50 [3] was 4.95 µM. The IC50 [4] was 8.83 µM, the IC50 [5] was 0.55 µM and the IC50 [6] was 22.2 µM. For the same molecule, the “DNA Synthesis (% positive of cells)” value (CCRF-CEM lymphoblasts [7]) was 19.73% and the IC50 [8] was 5.85 µM.
